Columns and labels:
CDK2/Cyclin E2 = molecular target: T1, CDK2/Cyclin E2 (Homo sapiens, UniProt P24941); assay: CDK2/CyclinE2 Enzymatic Activity Assay (TR-FRET); format: biochemical; details: ATP 1 mM final, read-out: CDK2_E1 IC50
T1 construct: Recombinant protein complex CDK2/Cyclin E2, expressed from insect cell, was purchased from ProQinase
Outline: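 Recombinant insect-cell CDK2/Cyclin E2 (1 nM) phosphorylated ULight-4E-BP1 (50 nM) with 1 mM ATP in HEPES pH 7.4 buffer, after 20 min compound preincubation; MgCl2 (10 mM) started the 45 min reaction at 37° C. Europium anti-phospho-4E-BP1 TR-FRET read; 9-dose IC50 by 4-parameter fit.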

CDK4/Cyclin D1 = molecular target: T2, CDK4/Cyclin D1 (Homo sapiens, UniProt P11802); assay: CDK4/CyclinD1 Enzymatic Activity Assay (TR-FRET); format: biochemical; details: ATP 2 mM final, read-out: CDK4_D1 IC50
T2 construct: purchased ProQinase; host or cells: insect cell
T2 sequence (P11802 whole entry): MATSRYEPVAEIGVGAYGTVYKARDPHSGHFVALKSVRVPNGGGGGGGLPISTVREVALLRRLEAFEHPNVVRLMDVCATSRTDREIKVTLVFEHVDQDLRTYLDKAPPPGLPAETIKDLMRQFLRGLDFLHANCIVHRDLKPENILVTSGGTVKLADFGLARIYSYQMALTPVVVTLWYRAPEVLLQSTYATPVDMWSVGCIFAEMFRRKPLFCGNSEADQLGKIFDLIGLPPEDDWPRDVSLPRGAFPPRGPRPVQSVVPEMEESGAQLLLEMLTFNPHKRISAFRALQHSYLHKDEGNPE
T2 sequence (P24385 whole entry partner): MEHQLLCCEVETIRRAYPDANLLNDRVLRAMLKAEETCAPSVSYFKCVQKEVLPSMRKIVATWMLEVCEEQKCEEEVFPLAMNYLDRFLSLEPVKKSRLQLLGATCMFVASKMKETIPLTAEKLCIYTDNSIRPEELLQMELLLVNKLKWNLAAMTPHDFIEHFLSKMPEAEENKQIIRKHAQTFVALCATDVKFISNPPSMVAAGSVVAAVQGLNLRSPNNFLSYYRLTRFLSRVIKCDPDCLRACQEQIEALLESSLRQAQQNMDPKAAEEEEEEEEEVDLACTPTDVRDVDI
Outline: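 Insect-cell-expressed CDK4/Cyclin D1 (1 nM) with ULight-4E-BP1 (100 nM) and 2 mM ATP in HEPES pH 7.4; 9-dose 3-fold compound series preincubated 20 min, reaction started with 10 mM MgCl2, 45 min at 37° C. Europium anti-P-4E-BP1 TR-FRET read; IC50 from 4-parameter Hill fit.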

OVCAR3 p-RB = assay: pRB ICW Assay in OVCAR3 Cells; format: cell-based; details: Homo sapiens, OVCAR-3, incubated with compound for 2 hours
Outline: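 OVCAR3 cells were treated 2 h at 37° C. with a 9-point half-log compound series, duplicate wells, with 10 μM reference compound as maximum inhibition. Fixed, permeabilized cells were stained with anti-phospho-RB plus DRAQ5 and imaged at 700/800 nm (In-Cell Western).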

Cn1cc(S(=O)(=O)N2CC[C@H](Nc3ncc(C(F)(F)F)c(-c4ncc(CC(C)(C)O)s4)n3)[C@H](F)C2)cn1 [Example 109, 1-(2-(2-(((3R,4S)-3-fluoro-1-((1-methyl-1H-pyrazol-4-yl)sulfonyl)piperidin-4-yl)amino)-5-(trifluoromethyl)pyrimidin-4-yl)thiazol-5-yl)-2-methylpropan-2-ol]
IC50 (CDK2/Cyclin E2): ≤ 0.1 µM
IC50 (CDK4/Cyclin D1): ≤ 0.1 µM
IC50 (OVCAR3 p-RB): ≤ 0.1 µM

CC(O)c1cnc(-c2nc(N[C@H]3CCN(S(=O)(=O)c4cnn(C)c4)C[C@H]3F)ncc2C(F)(F)F)s1 (stereo partly drawn) [Example 114, 1-(2-(2-(((3R,4S)-3-fluoro-1-((1-methyl-1H-pyrazol-4-yl)sulfonyl)piperidin-4-yl)amino)-5-(trifluoromethyl)pyrimidin-4-yl)thiazol-5-yl)ethan-1-ol]
IC50 (CDK2/Cyclin E2): ≤ 0.1 µM
IC50 (CDK4/Cyclin D1): ≤ 0.1 µM
IC50 (OVCAR3 p-RB): 0.1 to 0.5 µM

C[C@@H]1CN(S(C)(=O)=O)CC[C@@H]1Nc1ncc(C(F)(F)F)c(-c2ncc(CC(C)(C)O)s2)n1 [Example 131, 2-methyl-1-(2-(2-(((3R,4S)-3-methyl-1-(methylsulfonyl)piperidin-4-yl)amino)-5-(trifluoromethyl)pyrimidin-4-yl)thiazol-5-yl)propan-2-ol]
IC50 (CDK2/Cyclin E2): ≤ 0.1 µM
IC50 (CDK4/Cyclin D1): 0.1 to 0.5 µM
IC50 (OVCAR3 p-RB): > 0.5 µM

C[C@@H]1CN(S(C)(=O)=O)CC[C@@H]1Nc1ncc(C(F)(F)F)c(-c2ncc(C(C)(C)O)s2)n1 [Example 132, 2-(2-(2-(((3R,4S)-3-methyl-1-(methylsulfonyl)piperidin-4-yl)amino)-5-(trifluoromethyl)pyrimidin-4-yl)thiazol-5-yl)propan-2-ol]
IC50 (CDK2/Cyclin E2): ≤ 0.1 µM
IC50 (CDK4/Cyclin D1): 0.1 to 0.5 µM
IC50 (OVCAR3 p-RB): > 0.5 µM

C[C@@H]1CN(S(C)(=O)=O)CC[C@@H]1Nc1ncc(C(F)(F)F)c(-c2ncc(C(C)(O)C(F)F)s2)n1 (stereo partly drawn) [Example 142, 1,1-difluoro-2-(2-(2-(((3R,4S)-3-methyl-1-(methylsulfonyl)piperidin-4-yl)amino)-5-(trifluoromethyl)pyrimidin-4-yl)thiazol-5-yl)propan-2-ol]
IC50 (CDK2/Cyclin E2): ≤ 0.1 µM
IC50 (CDK4/Cyclin D1): 0.1 to 0.5 µM
IC50 (OVCAR3 p-RB): 0.1 to 0.5 µM
